Reference: patent publication US6534650B2, “Benzisoxazole and 4-amidino-3-hydroxyphenyl chemical intermediates” (Eli Lilly and Company, priority 1996, dated 2003)
Structures can show the parent of a compound that is named as a salt. Where two headings read alike, the source gives them in different places.

Tests used:
[1] = system: thrombin time (TT) in test plasma; assay: Anticoagulation determination: thrombin time (TT) in plasma; format: biochemical; conditions: compound added to plasma; linear extrapolation to doubling of the clotting time
Method: Dog plasma and rat plasma are obtained from conscious mixed-breed hounds (either sex, hazelton-LRE, Kalamazoo, Mich., U.S.A.) or from anesthetized male Sprague-Dawley rats (Harlan Sprague-Dawley, Inc., Indianapolis, Ind., U.S.A.) by venipuncture into 3.8 percent citrate. Fibrinogen is prepared from in-date ACD human blood as the fraction I-2 according to previous procedures and specifications. Smith, Biochem. J., 185, 1-11 (1980); and Smith, et al., Biochemistry, 11, 2958-2967 (1972). Human fibrinogen is also purchased as 98 percent pure/plasmin free from American Diagnostica, Greenwich, Conn. Coagulation reagents ACTIN, Thromboplastin, and Human plasma are from Baxter Healthcare Corp., Dade Division, Miami, Fla. Bovine thrombin from Parke-Davis (Detroit, Mich.) is used for coagulation assays in plasma.
Coagulation assay procedures are as previously described. Smith, et al., Thrombosis Research, 50, 163-174 (1988). A CoAScreener coagulation instrument (American LABor, Inc.) is used for all coagulation assay measurements. The thrombin time (TT) is measured by adding 0.05 ml saline and 0.05 ml thrombin (10 NIH units/ml) to 0.05 ml test plasma. The activated partial thromboplastin time (APTT) is measured by incubation of 0.05 ml test plasma with 0.05 ml Actin reagent for 120 seconds followed by 0.05 ml CaCl2 (0.02M). The prothrombin time (PT) is measured by adding 0.05 ml saline and 0.05 ml Thromboplastin-C reagent to 0.05 ml test plasma. The compounds of formula I are added to human or animal plasma over a wide range of concentrations to determine prolongation effects on the TT, APTT and PT assays. Linear extrapolations are performed to estimate the concentrations required to double the clotting time for each assay. Each of the particularly preferred examples of the invention listed above was determined to have a TT value of less than 50 ng/mL. For example, the respective values (in ng/mL) for TT were 6, 6 and 23 for the compounds of Examples 1, 3 and 5.

[2] = Octanol/water distribution coefficient logD at pH 7.4; format: physicochemical
human thrombin = human thrombin (Homo sapiens, UniProt P00734); assay: Inhibition of the amidase activity of thrombin (chromogenic substrate), Kass; format: biochemical; conditions: purified human thrombin, N-benzoyl-L-Phe-L-Val-L-Arg-p-nitroanilide substrate, pH 7.4; mean over a range of concentrations
Method: The assay is carried out by mixing 50 μl buffer (0.03M Tris, 0.15M NaCl, pH 7.4) with 25 μl of human thrombin solution (purified human thrombin, Enzyme Research Laboratories, South Bend, Ind., at 8 NIH units/ml) and 25 μl of test compound in a solvent (50% aqueous methanol (v:v)). Then 150 μl of an aqueous solution of the chromogenic substate (at 0.25 mg/ml) are added and the rates of hydrolysis of the substrate are measured by monitoring the reactions at 405 nm for the release of p-nitroaniline. Standard curves are constructed by plotting free thrombin concentration against hydrolysis rate. The hydrolysis rates observed with test compounds are then converted to “free thrombin” values in the respective assays by use of the standard curves. The bound thrombin (bound to test compound) is calculated by subtracting the amount of free thrombin observed in each assay from the known initial amount of thrombin used in the assay. The amount of free inhibitor in each assay is calculated by subtracting the number of moles of bound thrombin from the number of moles of added inhibitor (test compound).
The Kass value is the hypothetical equilibrium constant for the reaction between thrombin and the test compound (I). [formula]
Kass is calculated for a range of concentrations of test compounds and the mean value reported in units of liter per mole. […] For example, each of the particularly preferred examples of the invention listed above was determined to have a Kass of at least 100×10^6 L/mole.

Kass (hypothetical equilibrium constant for the reaction between thrombin and the test compound) (human thrombin) | logD [2] | ΔlogD(7.4) [2] [log units] | Structure (SMILES) | TT (concentration required to double the thrombin clotting time) [1] [ng/mL] | ΔlogD(7.4) ([2]; change versus the corresponding amidino-phenyl compound) [log units] | logD ([2]; octanol/water distribution coefficient, read-out: logD(7.4))
1e+08 L/mol | 1.91 | 5.80 | CCS(=O)(=O)N[C@H](CC1CCCCC1)C(=O)N1CCC[C@H]1C(=O)NCc1ccc(C(=N)N)c(O)c1 [Example 5, N-ethylsulfonyl-D-cyclohexylalanyl-N-[[4-(aminoiminomethyl)-3-hydroxyphenyl]methyl]-L-prolinamide hydrochloride] | 23 |  | 
7.7e+08 L/mol |  |  | N=C(N)c1ccc(CNC(=O)[C@@H]2CCCN2C(=O)[C@H](N)CC2CCCCC2)cc1O [Example 1, D-cyclohexylalanyl-N-[[4-(aminoiminomethyl)-3-hydroxyphenyl]methyl]-L-prolinamide dihydrochloride] | 6 |  | 

Structure (SMILES) | Kass (hypothetical equilibrium constant for the reaction between thrombin and the test compound) (human thrombin) | logD [2] | ΔlogD(7.4) [2] [log units] | TT (concentration required to double the thrombin clotting time) [1] [ng/mL] | ΔlogD(7.4) ([2]; change versus the corresponding amidino-phenyl compound) [log units] | logD ([2]; octanol/water distribution coefficient, read-out: logD(7.4))
N=C(N)c1ccc(CNC(=O)[C@@H]2CCCN2C(=O)[C@@H](CC2CCCCC2)NCC(=O)O)cc1O [Example 3, N-carboxymethyl-D-cyclohexylalanyl-N-[[4-(aminoiminomethyl)-3-hydroxyphenyl]methyl]-L-prolinamide hydrochloride] | 1,200×10^6 L/mole |  |  | 6 | 1.13 | 0.55
